The test system of one assay is EW-24 (Ewing's Sarcoma). The assay can be described thus: Bliss excess, mean over the matrix (fraction); higher = more synergy. The procedure, abridged:
(§1)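 Cell lines grown in DMEM/F12 or RPMI with 10% FBS were plated in 1536-well plates and held 24 hours at 37°C, 5% CO2 before 72 hours of exposure to two-drug dose matrices, with DMSO typically at 0.2%. CellTiter-Glo 2.0 luminescence gave viability, which was converted to inhibition. Vehicle wells were set to 0 and blank wells to 1. Combination Emax is the second-highest inhibition in the matrix, and Bliss excess is the observed combination effect minus the expected EA + EB − EA·EB, where EA and EB are the single-agent effects.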

Assay [1] deals with JVM-3 (B-Cell Non-Hodgkin's Lymphoma). The description is as above. The procedure, abridged: as §1
In assay [2] the test system is RF-48 (B-Cell Non-Hodgkin's Lymphoma). Described as above. The procedure, abridged: as §1
In assay [3] the test system is JVM-3 (B-Cell Non-Hodgkin's Lymphoma). Briefly: combination Emax (second highest fraction inhibited in the dose matrix, 72 h); higher = more inhibition; extreme values may be limits of the assay. The method, boiled down:
as §1

Here are results for 3 compounds from the supplement of paper PMC11061612.
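Throughout, for Bliss excess, mean over the matrix: after 72 h of two-drug dosing.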

Consider `CC1(C)CCC(CN2CCN(c3ccc(C(=O)NS(=O)(=O)c4ccc(NCC5CCOCC5)c([N+](=O)[O-])c4)c(Oc4cnc5[nH]ccc5c4)c3)CC2)=C(c2ccc(Cl)cc2)C1` [Venetoclax] + C[C@@H](Nc1cc(F)cc(F)c1)c1cc(C(=O)N(C)C)cc2c(=O)cc(N3CCOCC3)oc12 [AZD8186] (first compound max 1 µM, 7x7, partner max 3 µM), for which the Bliss excess is -0.01 with EW-24 (Ewing's Sarcoma), -0.0619 in assay [1] and 0.0481 in assay [2]. The “combination Emax” value in assay [3] came out at 0.486.
As to `CC1(C)CCC(CN2CCN(c3ccc(C(=O)NS(=O)(=O)c4ccc(NCC5CCOCC5)c([N+](=O)[O-])c4)c(Oc4cnc5[nH]ccc5c4)c3)CC2)=C(c2ccc(Cl)cc2)C1` [Venetoclax] + Cc1cc2ncnn2cc1Nc1ncc2c(n1)n(C1CCOCC1)c(=O)n2C [AZD7648] (first compound max 1 µM, 7x7, partner max 10 µM), the Bliss excess was -0.0699 with EW-24 (Ewing's Sarcoma), -0.0799 in assay [1] and -0.0106 in assay [2]. In addition, the “combination Emax” value in assay [3] was 0.64.
In the same order, the values of `CC1(C)CCC(CN2CCN(c3ccc(C(=O)NS(=O)(=O)c4ccc(NCC5CCOCC5)c([N+](=O)[O-])c4)c(Oc4cnc5[nH]ccc5c4)c3)CC2)=C(c2ccc(Cl)cc2)C1` [Venetoclax] + Cn1cnc2c(F)c(Nc3ccc(Br)cc3Cl)c(C(=O)NOCCO)cc21 [Selumetinib] (first compound max 1 µM, 7x7, partner max 3 µM) are -0.0463, -0.0583, -0.0034 and 0.486.
